# Results taken from patent US12648946B2, “Combination of antibody-pyrrolobenzodiazepine derivative conjugate and PARP inhibitor” (DAIICHI SANKYO COMPANY, LIMITED, priority 2019, dated 2026).
# Like-named read-outs stand apart in the source and are kept apart here.
# What was measured:
# [1] = tested on: human pharyngeal cancer cell line FaDu; assay: Antitumor test (3), subcutaneous xenograft; format: in vivo, mouse; settings: single administration
# Procedure: Mouse: Five- to six-week-old female BALB/c nude mice (Charles River Laboratories Japan, Inc.) were subjected to experiment. Assay and calculation formula: In all of the studies, the major axis and minor axis of a tumor were measured twice a week by using an electronic digital caliper ([…] Corp.), and the tumor volume (mm^3) was calculated. The calculation formula is as shown below. [formula] Each of the anti-CLDN6 antibody-drug conjugate ADC1, the anti-HER2 antibody-drug conjugate ADC2, and the anti-TROP2 antibody-drug conjugate ADC3 was diluted with ABS buffer (10 mM acetate buffer (pH 5.5), 5% sorbitol), and a liquid volume of 10 mL/kg was intravenously administered into the tail vein. […] LLC)/Dulbecco's Phosphate-Buffered Saline, and then a liquid volume of 10 mL/kg was intraperitoneally administered. […] LLC)/Dulbecco's Phosphate-Buffered Saline, and then a liquid volume of 10 mL/kg was orally administered. Niraparib was dissolved in DMSO, diluted with 0.5% methylcellulose, and then a liquid volume of 10 mL/kg was orally administered. The described method is common to Examples 34 to 37. […]
# [2] = tested on: human lung cancer cell line Calu-6; assay: Cell growth inhibition test (1); format: cell-based; settings: for IC50: Calu-6, 144 h
# Procedure: The human lung cancer cell line Calu-6 obtained from ATCC (American Type Culture Collection) was used for evaluation. Cells were prepared with MEM containing 10% fetal bovine serum (GE Healthcare), MEM Non-Essential Amino Acids Solution (Thermo Fisher Scientific), and Sodium Pyruvate (Thermo Fisher Scientific) (Thermo Fisher Scientific; hereinafter, referred to as EMEM medium) to reach 1.25×10^4 cells/mL, and 80 μL portions of them were added into a 96-well cell culture microplate. After addition of the cells, the cells were cultured at 37° C. and 5% CO2 overnight.
# On the next day, 10 μL portions of pyrrolobenzodiazepine derivative A, B, or C diluted with EMEM medium to 100 pM, 50 pM, 25 pM, 12.5 pM, 6.25 pM, 3.13 pM, 1.56 pM, or 0.78 pM were added to the microplate. To each well without any pyrrolobenzodiazepine derivative, 10 μL of EMEM medium was added. Further, 10 μL portions of olaparib prepared with EMEM medium to reach 2 μM were added to the microplate. To each well without olaparib, 10 μL of EMEM medium was added. Thereafter, the microplate was cultured at 37° C. and 5% CO2 for 6 days. After culturing, the microplate was taken out of the incubator, and left to stand at room temperature for 30 minutes. CellTiter-Glo Luminescent Cell Viability Assay (Promega Corporation) in an amount equivalent to that of the culture solution was added, and stirred using a plate mixer. The microplate was left to stand at room temperature for 10 minutes, and thereafter the amount of emission was measured by using a plate reader (PerkinElmer).
# Cell survival rates in wells with derivative A, B, or C were calculated by using the following formula.
# [formula] • a: Mean value of amounts of emission from wells with derivative A, B, or C • b: Mean value of amounts of emission from wells with medium • IC50 values were calculated by using the following formula.
# (§1) [formula] • a: Concentration of derivative A, B, or C, a • b: Concentration of derivative A, B, or C, b • c: Cell survival rate when derivative A, B, or C of concentration a was added • d: Cell survival rate when derivative A, B, or C of concentration b was added • a and b satisfy a>b at points sandwiching a cell survival rate of 50%.
# Cell survival rates in wells with derivative A, B, or C added together with 2 μM olaparib were calculated by using the following formula.
# [formula] a: Mean value of amounts of emission from wells with derivative A, B, or C added together with 2 μM olaparib • b: Mean value of amounts of emission from wells with 2 μM olaparib • IC50 values were calculated by using the following formula.
# as §1, with “and 2 μM olaparib were” for “was”
smiles,measurement,setting,value
Cn1ncnc1[C@H]1c2n[nH]c(=O)c3cc(F)cc(c23)N[C@@H]1c1ccc(F)cc1 [talazoparib],tumor growth inhibition (TGI),"[1]; talazoparib 0.8 mg/kg oral for 5 days from Day 0, Day 25, FaDu",33%
"O=C(c1cc(Cc2n[nH]c(=O)c3ccccc23)ccc1F)N1CCN(C(=O)C2CC2)CC1 [olaparib, reference compound]",inhibition at 2 µM,"[2]; 144 h, 2 μM olaparib alone, Calu-6, 6 days",< 10%
same,tumor growth inhibition (TGI),"[1]; olaparib 50 mg/kg i.p. for 5 days from Day 0, Day 25, FaDu",7%
"COc1ccc(C2=CN3C(=O)c4cc(OC)c(OCCCCCOc5cc6c(cc5OC)C(=O)N5CC7(CC7)C[C@H]5C=N6)cc4NC[C@@H]3C2)cc1 [derivative A, (11a′S)-7′-Methoxy-8′-[(5-{[(11aS)-7-methoxy-2-(4-methoxyphenyl)-5-oxo-5,10,11,11a-tetrahydro-1H-pyrrolo[2,1-c][1,4]benzodiazepin-8-yl]oxy}pentyl)oxy]-1′,11a′-dihydro-5′H-spiro[cyclopropane-1,2′-pyrrolo[2,1-c][1,4]benzodiazepine]-5′-one]",IC50,"[2]; read-out: IC50, growth-suppressing effect, added singly, Calu-6, 6 days",6.8 pM
same,IC50,"[2]; read-out: IC50, growth-suppressing effect, added together with 2 μM olaparib, Calu-6, 6 days",4.3 pM
